Experimental data as given in article PMC7914775, “Molecules Present in Plant Essential Oils for Prevention and Treatment of Colorectal Cancer (CRC)” (Molecules, 2021).
Read-outs that look alike come from different tables or passages of the source.

Legend:
Caco-2 cell line = assay: cells; set-up: effect on cell growth, MTT: dose or concentration left out as unconfirmed; conditions: for IC50: Caco-2, MTT
Protocol: (§1) Briefly, cells were firstly seeded, in triplicate, into 96-well culture plates at 10^4 cells/well. […] Ethanol 99.5% was used to solubilize essential oils. The final concentration of ethanol in the cell medium was kept lower than 0.1%. Ethanol 0.1% was added to the control (untreated) cells.
(§2) The cytotoxicity of the essential oil single components was evaluated by MTT assay on 96-well plates. After 24, 48 and 72 h, MTT (dissolved in PBS) was diluted with fresh medium at final concentration of 0.5 mg/mL, added to cell culture and incubated at 37 °C. After 4 h, the medium was removed and 100 μL of DMSO was added. After 1 h at room temperature, the purple formazan crystals were dissolved, and the plates were read in a microplate reader (Victor3™, Perkin Elmer, Waltham, MA, USA). Absorbance was measured at 595 nm. Cell growth inhibition rate was calculated as a percentage of treated cells on control ones.

NCM-460 cell line = assay: cells; conditions: for concentration affecting cell viability: NCM-460, after 24 h
Protocol: as §1, §2

Caco-2 cells [1] = assay: in vitro; type: cell-based, human; conditions: for cell death, Annexin V/PI: Caco-2, 72 h, 800 µM eugenol, 75 µM cinnamaldehyde
Protocol: (§3) Cell cycle analysis and apoptosis detection assay were only performed in cell treated with cinnamaldehyde and eugenol, at dosages that were not found toxic on the NCM-460 cell line. Briefly, 100,000 cells were seeded into 6-well cultured plates and allowed to attach for 24 h. After that, cells were treated for 72 h as previously described. Then, the cells were collected for the cell cycle analysis, washed twice with PBS, fixed with 70% ethanol, and incubated at −20 °C overnight. Then, the cells were washed with 500 µL of PBS, centrifuged at 1500 rpm for 5 min, resuspended in 500 μL of PBS containing 50 μg/mL RNase A and incubated for 30 min at room temperature. Cells were then centrifuged at 1500 rpm for 5 min, resuspended in PBS, and 10 µg/mL of Propidium iodide was added. Detection of apoptotic cells was performed with Annexin V/Propidium iodide detection kit, following the manufacturer’s instructions (Bender Medsystems, Wien, Austria). Cells were analyzed by flow cytometry (FACS) (Cytoflex, Beckman Coulter, CA, USA).

SW-620 cells [2] = assay: in vitro; type: cell-based, human; conditions: for Q2-UL cells (upper left quadrant, necrosis): SW620, 72 h, eugenol 800 µM (E800), cinnamaldehyde 75 µM (A75); for cell death, Annexin V/PI: SW-620, 72 h, 800 µM eugenol, 75 µM cinnamaldehyde
Protocol: as §3

NCM-460 cells [3] = assay: in vitro; type: cell-based, human; conditions: NCM-460, 72 h; 800 µM eugenol, 75 µM cinnamaldehyde
Protocol: as §3

Caco-2 cells [4] = assay: Cell cycle analysis (propidium iodide, flow cytometry), Caco-2; type: cell-based, human; conditions: Caco-2, 72 h; 75 µM cinnamaldehyde, 800 µM eugenol; vs control
Protocol: as §3

SW-620 cells [5] = assay: Cell cycle analysis (propidium iodide, flow cytometry), SW-620; type: cell-based, human; conditions: SW-620, 72 h; 75 µM cinnamaldehyde, 800 µM eugenol; vs control
Protocol: as §3

NCM-460 cells [6] = assay: Cell cycle analysis (propidium iodide, flow cytometry), NCM-460; type: cell-based, human; conditions: NCM-460, 72 h; 75 µM cinnamaldehyde, 800 µM eugenol; vs control
Protocol: as §3

SW-620 cell line = assay: MTT cell viability assay, SW-620; conditions: for IC50: SW-620, MTT
Protocol: Briefly, cells were firstly seeded, in triplicate, into 96-well culture plates at 10^4 cells/well. […] The final concentration of ethanol in the cell medium was kept lower than 0.1%. Ethanol 0.1% was added to the control (untreated) cells.
as §2

in vitro = type: cell-based, human; conditions: human, eugenol 800 µM (E800), cinnamaldehyde 75 µM (A75), read-out: Q2-LL cells (lower left, viable, AnnexinV −/PI −)
Protocol: as §3

Caco-2 cells [7] = conditions: viability of Caco-2 cells; cited from earlier work
[8] = Homo sapiens, Caco-2, 24 h, 24 h
[9] = Homo sapiens, Caco-2, 72 h, 72 h
[10] = Homo sapiens, SW-620, 24 h, 24 h
[11] = Homo sapiens, SW-620, 72 h, 72 h
[12] = Caco2, 72 h, eugenol 800 µM (E800), cinnamaldehyde 75 µM (A75)

Compound | IC50 (Caco-2 cell line; 24 h) | IC50 (Caco-2 cell line; 72 h) | IC50 (Caco-2 cell line; [8]) | IC50 (Caco-2 cell line; [9]) | Selectivity Index (Caco-2 cell line; IC50 NCM460 / IC50 Caco2, 24 h) | Selectivity Index (Caco-2 cell line; IC50 NCM460 / IC50 Caco2, 72 h) | cell death, Annexin V/PI (Caco-2 cells [1]) | Q2-UL cells (upper left quadrant, necrosis) (SW-620 cells [2]) | cell death, Annexin V/PI (SW-620 cells [2]) | cell death, Annexin V/PI (NCM-460 cells [3]) | effect on cell cycle progression (Caco-2 cells [4]) | effect on cell cycle progression (SW-620 cells [5]) | effect on cell cycle progression (NCM-460 cells [6]) | IC50 (SW-620 cell line; [10]) | IC50 (SW-620 cell line; [11]) | Selectivity Index (SW-620 cell line; IC50 NCM460 / IC50 SW620, 24 h) | Selectivity Index (SW-620 cell line; IC50 NCM460 / IC50 SW620, 72 h) | IC50 (SW-620 cell line; 24 h) | IC50 (SW-620 cell line; 72 h) | concentration affecting cell viability (NCM-460 cell line) | further results
CC(C)=CCC/C(C)=C/CO [Geraniol] |  |  |  |  |  |  |  |  |  |  |  |  |  |  |  |  |  |  |  |  | effect on cell proliferation, MTT (Caco-2 cell line; Caco-2, 100–800 µM, 72 h): increase cell proliferation; cytotoxic effect, MTT (Caco-2 cell line; human, 72 h, 1000 µM): not on the Caco-2 cells; effect on cell proliferation, MTT (NCM-460 cell line; NCM-460, 100–800 µM, 48–72 h): increase cell proliferation
O=C/C=C/c1ccccc1 [cinnamaldehyde] | 166 µM | 86.9 µM | 166 µM | 87 µM | 1.31 | 0.96 | both late apoptosis and necrosis were detected | 15.98% | both late apoptosis and necrosis were detected | did not induce | reduction of G2 phase | G1 accumulation | did not find differences | 92 µM | 92 µM | 2.37 | 0.9 | 92 µM | 92.1 µM |  | effect on viability, MTT (Caco-2 cell line; Caco-2, 75 (µg/mL in the source), 48 and 72 h): reduced viability; IC50 (NCM-460 cell line; Homo sapiens, NCM460, 24 h, NCM-460, MTT, 24 h): 218 µM; IC50 (NCM-460 cell line; Homo sapiens, NCM460, 72 h, NCM-460, MTT, 72 h): 83 µM; IC50 (NCM-460 cell line; NCM-460, MTT, 24 h): 218 µM; IC50 (NCM-460 cell line; NCM-460, MTT, 72 h): 83.2 µM; effect on viability, MTT (SW-620 cell line; SW-620, 75 (µg/mL in the source), any timepoint): reduced viability
C=C1CC/C=C(\C)CC[C@@H]2[C@@H]1CC2(C)C [β-caryophyllene] |  |  |  |  |  |  |  |  |  |  |  |  |  |  |  |  |  |  |  |  | effect on cell growth, MTT (Caco-2 cell line; Caco-2): increased cell growth; effect on viability, MTT (NCM-460 cell line; NCM-460, 240 and 360 µM at 24 h and 120–260 µM at 72 h): affected the viability; effect on viability, MTT (SW-620 cell line; SW-620, 260 µM at 24, 48 and 72 h): affected the viability
Cc1ccc(C(C)C)cc1O [carvacrol] |  |  |  |  |  |  |  |  |  |  |  |  |  |  |  |  |  |  |  | 500 µM | effect on viability, MTT (Caco-2 cell line; Caco-2, same range of concentrations used by Llana-Ruiz-Cabello and co-workers [19]): reduced Caco-2 cell viability; toxicity, MTT (SW-620 cell line; SW-620, 24 and 48 h, up to the maximum tested concentration of 750 μM): no toxicity; cytotoxic effect, MTT (SW-620 cell line; SW-620, 250, 500 and 750 µM, only after 72 h): modest statistically significant toxicity
C=CCc1ccc(O)c(OC)c1 [eugenol] | 485 µM | 730 µM | 458 µM | 730 µM | 2.82 | 1.60 | both late apoptosis and necrosis were detected | 17.12% | both late apoptosis and necrosis were detected | did not induce | reduction of G2 phase | G1 accumulation | did not find differences | 918 µM | 866 µM | 1.49 | 1.34 | 918 µM | 866 µM |  | effect on cell proliferation, MTT (Caco-2 cell line; Caco-2, lower doses from 100 to 400 µM): seemed to stimulate; Q2-UL cells (upper left quadrant, necrosis) (Caco-2 cells [1]; [12]): 25.95%; Q2-UR cells (upper right quadrant, late apoptosis) (Caco-2 cells [1]; [12]): 5.55%; viability at 72 h (in vitro; Caco2, 72 h): 67.5%; viability at 72 h (in vitro; NCM460, 72 h): 95.4%; viability at 72 h (in vitro; SW620, 72 h): 81.3%; IC50 (NCM-460 cell line; Homo sapiens, NCM460, 24 h): 1370 µM; IC50 (NCM-460 cell line; Homo sapiens, NCM460, 72 h): 1160 µM; effect on cell proliferation, MTT (NCM-460 cell line; NCM-460, lower doses from 100 to 400 µM): seemed to stimulate
Cc1ccc(C(C)C)c(O)c1 [thymol] |  |  |  |  |  |  |  |  |  |  |  |  |  |  |  |  |  |  |  | 165 µM | IC50 (Caco-2 cells [7]): 700 µM; cytotoxic effect, MTT (SW-620 cell line; SW-620, 660 and 1320 µM): cytotoxic effect was also detectable; toxic concentration (SW-620 cell line; SW-620, after 24 h): 660 µM
